The record followed here is article PMC9248040 (RSC Advances, 2022).

Common to all, as to assay type: biochemical
The target of one assay is Aβ1–42 (amyloid-β 1-42) (Homo sapiens, UniProt P05067). Put plainly: fluorescent-probe fibril aggregation inhibition kit assay.
Assay [1] has as its target T1, MAO-B (monoamine oxidase-B) (Homo sapiens, UniProt P27338).
T1 sequence (P27338 2-520): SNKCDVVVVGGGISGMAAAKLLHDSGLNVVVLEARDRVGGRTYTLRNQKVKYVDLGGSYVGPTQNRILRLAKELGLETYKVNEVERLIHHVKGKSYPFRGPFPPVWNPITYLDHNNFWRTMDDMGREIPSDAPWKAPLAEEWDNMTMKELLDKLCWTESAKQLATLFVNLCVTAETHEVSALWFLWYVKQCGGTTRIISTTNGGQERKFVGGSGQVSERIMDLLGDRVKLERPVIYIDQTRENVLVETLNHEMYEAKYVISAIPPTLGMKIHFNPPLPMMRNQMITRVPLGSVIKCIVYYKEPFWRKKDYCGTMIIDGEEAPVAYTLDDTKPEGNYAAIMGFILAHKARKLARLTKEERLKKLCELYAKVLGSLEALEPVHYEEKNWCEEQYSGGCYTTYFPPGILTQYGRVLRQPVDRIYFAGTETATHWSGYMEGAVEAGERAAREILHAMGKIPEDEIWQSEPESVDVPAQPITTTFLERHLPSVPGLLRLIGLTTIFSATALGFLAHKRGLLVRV
Briefly: fluorometric OxiRed-probe kit inhibition assay.

A further assay deals with BACE1 (β-secretase) (Homo sapiens, UniProt P56817). Briefly: fluorescence kit substrate-cleavage inhibition assay.
Sequence of BACE1 (β-secretase) (P56817 46-457): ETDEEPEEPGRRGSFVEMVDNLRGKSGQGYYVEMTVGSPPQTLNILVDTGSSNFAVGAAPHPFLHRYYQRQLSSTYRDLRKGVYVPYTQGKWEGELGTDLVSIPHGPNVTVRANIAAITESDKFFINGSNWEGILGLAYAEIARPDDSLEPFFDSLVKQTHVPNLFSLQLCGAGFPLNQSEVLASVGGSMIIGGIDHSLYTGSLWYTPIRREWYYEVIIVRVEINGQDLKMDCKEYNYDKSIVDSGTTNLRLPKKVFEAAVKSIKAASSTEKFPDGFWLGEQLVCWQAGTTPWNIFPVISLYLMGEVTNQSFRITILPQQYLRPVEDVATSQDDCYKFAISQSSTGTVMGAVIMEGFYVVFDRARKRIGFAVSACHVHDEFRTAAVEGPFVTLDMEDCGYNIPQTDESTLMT

Sequence of Aβ1–42 (amyloid-β 1-42) (P05067 672-713): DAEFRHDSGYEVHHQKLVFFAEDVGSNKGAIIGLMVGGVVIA

Consider `COc1cc(/C=C/C(=O)NC[C@@H](OC)c2ccc(O)cc2)ccc1O` [compound 7, S-(−)-3-(4-hydroxy-3-methoxyphenyl)-N-[2-(4-hydroxyphenyl)-methoxyethyl]acrylamide], for which the IC50 (usually the concentration needed to halve the response being measured) on Aβ1–42 (amyloid-β 1-42) is 7.63 µM; in assay [1], 4.43 µM; on BACE1 (β-secretase), 16.4 µM.

Turning to `O=C(/C=C/c1ccc(O)c(O)c1)NCCc1ccc(O)cc1` [compound 6, N-trans-caffeoyltyramine], the values for the IC50 (on Aβ1–42 (amyloid-β 1-42); in assay [1]; at BACE1 (β-secretase)) were 20.2 µM, 8.75 µM and 34.1 µM, respectively.

With `COc1cc(/C=C/C(=O)NCCc2ccc(O)cc2)ccc1O` [compound 2, N-trans-feruloyltyramine], the values for the IC50 (on Aβ1–42 (amyloid-β 1-42); in assay [1]; at BACE1 (β-secretase)) were 3.83 µM, 7.15 µM and 37 µM, respectively.

Regarding `COc1cc(/C=C/C(=O)NC[C@@H](O)c2ccc(O)cc2)ccc1O` [compound 4, S-(−)-N-trans-feruloyloctopamine], the IC50 on Aβ1–42 (amyloid-β 1-42) is 39.8 µM; in assay [1] it was 18 µM; against BACE1 (β-secretase) it was 110 µM.

`COc1cc(/C=C/C(=O)NCCc2ccc(O)c(OC)c2)ccc1O` [compound 1, N-trans-feruloyl-3-methoxytyramine]: the IC50 against Aβ1–42 (amyloid-β 1-42) was 0.874 µM; in assay [1], 2.07 µM; against BACE1 (β-secretase), 15.7 µM.
